Reference: ChEMBL document CHEMBL1142587, “Rhizochalin A, a novel two-headed sphingolipid from the sponge Rhizochalina incrustata” (J Nat Prod, 2005)
Converted amounts (≈) assume the structure as drawn.

Test system: Ehrlich
Test: Cytotoxicity against mouse Ehrlich cells
Assay type: functional, cell-based

For `C[C@@H](N)[C@H](O)CCCCCCCC(=O)CCCCCCCCCCCCCC[C@@H](O[C@@H]1O[C@H](CO)[C@H](O)[C@H](O)[C@H]1O)[C@@H](C)N` [RHIZOCHALIN], the IC50 was 10 µg/mL (≈ 15.8 µM).
